{
  "source": "patent EP1566447A1",
  "about": "“Glimepiride- and insulin-induced glycosylphosphatidylinositol-specific phospholipase C regulation” (priority 2004, dated 2005)",
  "key": {"[1]": {"test_system": "bacterial, trypanosomal, serum and rat adipocyte GPI-PLC/D", "assay": "(G)PI-PLC/D of various origin, results stated collectively", "type": "biochemical", "description": "GPI-PLD (rat serum) was assayed according to \"Hari et al. (1997) Biochim. Biophys. Acta 1355: 293-302\" by incubation with 10 µl of human placental aP solution (100 U/ml in 10 mM Hepes/NaOH, pH 7.0, 150 mM NaCl) in 100 µl of 200 mM Tris/maleate (pH 7.0) and 1 % Nonidet P-40 for 10 min at 37°C and subsequent termination of the reaction by addition of 0.4 ml of ice-cold stop buffer (10 mM Hepes/NaOH, pH 7.0, 150 mM NaCl, 0.1 mM MgCl2 and 0.01 mM zinc acetate). GPI-PLC (T. brucei) was assayed as described in \"Mensa-Wilmot et al. (1995) Methods Enzymol. 250: 641-655\" by incubation with 5 µl of human placental aP solution (see above) in 50 µl of 50 mM Tris/HCl (pH 8.0), 0.25 % Nonidet P-40 and 5 mM EDTA for 30 min at 37°C and subsequent termination of the reaction by addition of 0.45 ml of stop buffer. […]\nPelleted hc/IcDIGs (10-50 µg protein) or (G)PI-PLC reaction mixtures (0.5 ml) were separated into amphiphilic and hydrophilic proteins using partitioning between TX-114-enriched and depleted phases according to \"Bordier, C., (1981) J. Biol, Chem. 272: 2542-2550\" by suspending in 1 ml of ice-cold TX-114 (1 %), 25 mM Tris/HCl (pH 7.4), 144 mM NaCl or mixing with 0.5 ml of ice-cold TX-114 (2 %), respectively. […] After re-extraction of the lower TX-114-enriched phase, aliquots of the pooled upper TX-114-depleted phase were measured for 5'-Nuc, aP and AChE activity or precipitated (15 % polyethylene glycol 4000) for SDS-PAGE analysis.\nGPI-2350 inhibits (G)PI-PLC/D of various origin with high potency and selectivity: The effect of GPI-2350 on (purified or crude) B. cereus PI-PLC, T. brucei GPI-PLC and rat serum GPI-PLD was monitored by their incubation with partially purified solubilized GPI proteins under appropriate conditions (low or high detergent conc.) in the presence of increasing concentrations of GPI-2350. […]"}, "[2]": {"target": "T1, bacterial PC-PLC (Bacillus cereus, UniProt P09598)", "T1 construct": "purchased Sigma/Aldrich (Deisenhofen, Germany)", "T1 sequence (P09598 39-283 limits assumed)": "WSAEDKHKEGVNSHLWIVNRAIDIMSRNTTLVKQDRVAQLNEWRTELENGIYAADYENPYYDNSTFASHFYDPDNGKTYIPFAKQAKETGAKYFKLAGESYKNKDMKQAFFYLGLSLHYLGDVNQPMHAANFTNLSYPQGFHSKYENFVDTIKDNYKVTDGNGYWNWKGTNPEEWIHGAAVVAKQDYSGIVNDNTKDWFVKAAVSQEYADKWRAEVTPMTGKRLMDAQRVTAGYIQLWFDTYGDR", "assay": "selectivity: PC-PLC assay", "type": "biochemical", "settings": "50 µM"}, "[3]": {"test_system": "Isolated rat adipocytes", "assay": "glimepiride-induced redistribution of signaling proteins within DIGs", "type": "cell-based", "settings": "max. effective conc. (50 µM)"}},
  "note": "Entries after “also recorded” stand apart in the source; their conditions may differ.",
  "data": [
    {"smiles": "CCCCCCCCCCCCP1(=O)O[C@@H]2[C@H](O)[C@@H](O)[C@H](O)[C@@H](O)[C@@H]2O1", "note": "(mixture of isomers) [GPI-2350, myo-inositol-1,2-cyclo-dodecylphosphonic acid]", "values": [
      {"measurement": "blocked GPI-PLC/D by", "setting": "[1]; 50 µM, one range for all four enzymes, Fig. 3", "value": "60 to 95", "unit": "%"},
      {"measurement": "reversal of half-maximal inhibition upon 10-fold dilution", "setting": "[1]; bacterial and trypanosomal (G)PI-PLC, dilution with excess of fresh GPI-protein substrate", "value": "completely reversed"},
      {"measurement": "IC50", "setting": "[1]; bacterial, trypanosome and serum GPI-PLC and GPI-PLD, one range for all", "value": "0.2 to 10", "unit": "µM"},
      {"measurement": "effect on phospholipase activity", "setting": "[2]", "value": "not significantly affected"},
      {"measurement": "effect on glimepiride-induced redistribution from hcDIGs to IcDIGs", "setting": "[3]", "value": "almost complete blockade; also recorded: almost completely abolished"}
    ]}
  ]
}
